# “Also recorded” adds a separate entry of the source. d = 2'-deoxy (DNA); m = 2'-O-methyl
# Columns and labels:
# MCF-7 cell line [1] = assay: Mitochondrial membrane potential (MitoTracker Red); type: cell-based, Human; conditions: 0.25, 0.5, 1 μM; 24 hours; vs non-treated cells
# Method: The evaluation of ASMO1 APT20TTMG effect on the mitochondrial membrane potential of MCF-7 cell line was performed using MitoTracker Red dye. MitoTracker Red is a cationic fluorophore that accumulates in the mitochondria matrix, providing an indication of the viability and integrity of that organelle.
# For this, cells were cultured overnight in 24-well plates at a density of 1×10^5 cells/well, aiming cell adhesion. After that, cells were treated with three concentrations of APT20TTMG (0.25, 0.5, and 1 μM) for 24 hours. After treatment with the ASMO1, cells were collected using a 0.05% trypsin solution and washed twice with 2.0 mL of PBS buffer. Finally, samples were incubated with 500 μL of MitoTracker Red fluorescent dye solution at a concentration of 50 nM for 15 minutes in an incubator. Then the cells were again washed twice with 2 mL of PBS and, subsequently, analyzed in a flow cytometer (BD FACSCanto II, BD Biosciences) through the acquisition of 10.000 gated events/sample.
# MCF-7 cell line [2] = assay: Internalization of carboxyfluorescein-conjugated APT20TTMG by flow cytometry; type: cell-based, Human; conditions: 1 μM carboxyfluorescein conjugate
# Method: To investigate the internalization of ASMO APT20TTMG by MCF-7 cell line, the quantification of intracellular fluorescence was measured by flow cytometry. For this aim, the ASMO APT20TTMG was conjugated to the fluorochrome carboxyfluorescein. It is assumed that the percentage of ASMO molecules internalized is presumably proportional to the quantified fluorescence signal detected inside the cells. The cell lines were cultured in 24-well plates for 24 hours at 5×10^4 cells per well. After that, the cells were incubated with ASMO1 prepared in culture medium without FBS at a concentration of 1 μM for 0.5, 1, 2, 4, and 6 hours. Untreated cells were used as negative controls. After treatment incubation, cells were washed twice with 1 mL of PBS/well and then incubated with 200 μL/well of trypsin/EDTA solution for approximately 3 minutes for disaggregation of adherent cells. Trypsin was neutralized by the addition of complete medium and cells were centrifuged at 1500 rpm for 5 minutes. Subsequently, the cells were washed with 2 mL/sample of PBS and centrifuged again at 1500 rpm for 5 minutes. […] The fluorescence of the cells, corresponding to the cellular uptake of the APT20TTMG labeled with carboxyfluorescein, was analyzed using a BD FACSCANTO II Flow cytometer (BD Biosciences, NJ, USA) through the acquisition of 10.000 gated events considering each sample.
# U87-MG cell line = assay: Apoptosis assay; type: cell-based, Human
# [3] = tested on: Human Glioblastoma Cancer (U-87MG) xenograft; assay: Human glioblastoma xenograft tumor growth; type: in vivo, athymic nude mice; conditions: for tumor reduction in relation to the negative control: APT20TTMG 20 mg/kg i.v. q3d, TMZ 5 mg/kg p.o. daily
# Method: Subcutaneous inoculation of the tumorigenic Human Glioblastoma Cancer Cell line (U-87MG) results in the formation of solid tumor in athymic nude mice. Under pathogen free conditions, the tumor retains its own characteristics and grows using the growth factors supplied by the host animal. The ability of administered ASMO1 to inhibit the growth of tumor can be a valuable tool to evaluate its efficacy as an anti-tumor agent. Measurement of tumor size at defined intervals of time generates data that can be used to calculate various end point parameters derived from tumor and understand the potency of the test compounds.
# Human glioblastoma cancer cells (U-87MG) were cultured and expanded in EMEM (Eagle's Minimum Essential Medium) supplemented with 10% Fetal Bovine Serum (FBS) at 37° C. and 5% CO2. The cells growing at log phase were harvested by trypsinization and centrifuged for 3 minutes at 800 rpm to form a pellet. The pellet was further washed with PBS. Cell suspension stock was prepared to obtain the required cell count. Before cell inoculation, cell viability was determined using trypan blue. 25 μL of cell suspension was stained with 25 μL of trypan blue and viable cells were counted using Neubauer's chamber. Cell number was adjusted by adding serum free media to achieve desired concentration, i.e., 10×10^7/mL.
# Cells were diluted such that the concentration of the cells was 10 million cells/100 μL of serum free medium. Overnight thawed Matrigel and cells with medium were mixed 1:1 and a total volume of 200 μL was injected subcutaneously to the donor animals (n=5) at flank region.
# Donor animals were monitored for solid tumor growth for at least 3-4 weeks. Tumor size was measured using digital caliper (MITUTOYO, Japan, CP-15Mx) and volume was calculated by using the formula: (L*W2)/2. Once the tumor reached required size ˜500 mm^3, the donor animals were humanely sacrificed, the tumor was harvested and fragmented into ˜30 mg size and implanted subcutaneously to experimental animals (n=50) using the device. All the animals was monitored alternate day for tumor growth/size.
# Once the tumor size reached ˜100 mm^3, animals were selected and randomized by stratification method using tumor size into three groups (G1-G3). Treatment for G1-G3 was initiated at this stage. Each group was comprised of 8 animals.
# • G1 was served as vehicle control group and treated with normal saline at the dose of 5 mL/kg, daily, intravenously for 3 weeks. • G2 was served as Reference Item treated group and treated with TMZ at the dose of 5 mg/kg, p.o., daily for 3 weeks. • G3 was treated with APT20TTMG at the dose of 20 mg/kg, intravenously, every third day (q3d) for 3 weeks.
# Body weight and tumor size were measured weekly twice using digital caliper. At termination, blood was collected through retro-orbital route. Serum/plasma was separated and stored at deep freezer (−20° C.). Post blood collection, animals were humanely sacrificed by CO2 asphyxiation as per latest guidelines issued by CPCSEA. All the vital organ (brain, kidney, liver, lungs, heart) and tumor were dissected out. Vital organs were fixed in 10% NBF and stored. Tumor tissue was dissected out, weighed and portion of tumor tissue was fixed in 10% NBF and another portion is snap frozen and stored at deep freezer (−80° C.).
# As shown in FIG. 34A-C, tumor fragments from the U-87MG cell line were implanted in the animals and once the tumor size reached ˜100 mm^3 animals were randomized into 3 experimental groups (G1, G2, and G3). G1: Vehicle, (G2) Reference Item Temozolomide, and (G3) APT20TTMG for a total of 22 days. (A) The tumor volume of the animals was measured twice/a week. (B) Animals were weighed throughout the experiment and the change in weight gain compared to pre-treatment weight was plotted. (C) After the euthanasia of the animals, the tumors were removed and weighed.
# [4] = two highest concentrations (0.5 and 1 μM)
substance,measurement,setting,value
"APT20TTMG: engineered polynucleotide ASMO1, 24 nt, SEQ ID NO: 3 gtccactaacctttcaggccagcg; targeting moieties 5′-GTCCA-3′ and 5′-CG-3′, U1 snRNP recruiting moiety (GTCCACTAACCTTTCAGGCCAGCG; sugars from the 5' end m5 d14 m5, all phosphorothioate, methylation of C and T or U not given here)",mitochondrial membrane potential,MCF-7 cell line [1],no change in mitochondrial membrane potential
same,internalization,MCF-7 cell line [2]; after 1 hour and subsequent period (to 6 h),around 80%
same,internalization,MCF-7 cell line [2]; first half hour,75.3±1.4%
same,late apoptosis,U87-MG cell line; 0.25 μM,trend toward this state
same,late apoptosis,U87-MG cell line; [4],significantly marked for late apoptosis
same,viable cells (apoptosis assay),U87-MG cell line; [4],reduce cell viability
same,tumor growth (tumor volume) vs vehicle group,"[3]; APT20TTMG 20 mg/kg i.v. every third day 3 weeks, TMZ 5 mg/kg p.o. daily 3 weeks",inhibit tumor growth from day 16
same,final tumor weight,"[3]; between APT20TTMG, TMZ and vehicle groups, after euthanasia",no statistical difference
same,tumor reduction in relation to the negative control,[3]; day 20,46.7±10.7%
same,tumor reduction in relation to the negative control,[3]; day 22,42±13.2%
same,Volume (tumor),"[3]; individual animals, G3 APT20TTMG, G2 TMZ",Volume 321.5; also recorded: Volume 768.1; also recorded: Volume 796.8; also recorded: Volume 62.3; also recorded: Volume 1441.5; also recorded: Volume 953.5

# From US20260085315A1, “POLYNUCLEOTIDE COMPOSITIONS AND METHODS FOR TREATMENT OF CANCER” (APTAH BIO, INC., priority 2023, published 2026)
